From ChEMBL document CHEMBL1142472, “New ferrocenic pyrrolo[1,2-a]quinoxaline derivatives: synthesis, and in vitro antimalarial activity” (Bioorg Med Chem, 2008)
The source made the active and inactive calls. The calls are words filed in the database; no cut-off is given here.

Target: T1, Histidine-rich protein PFHRP-II (Plasmodium falciparum) (UniProt P05227)
T1 sequence (whole entry): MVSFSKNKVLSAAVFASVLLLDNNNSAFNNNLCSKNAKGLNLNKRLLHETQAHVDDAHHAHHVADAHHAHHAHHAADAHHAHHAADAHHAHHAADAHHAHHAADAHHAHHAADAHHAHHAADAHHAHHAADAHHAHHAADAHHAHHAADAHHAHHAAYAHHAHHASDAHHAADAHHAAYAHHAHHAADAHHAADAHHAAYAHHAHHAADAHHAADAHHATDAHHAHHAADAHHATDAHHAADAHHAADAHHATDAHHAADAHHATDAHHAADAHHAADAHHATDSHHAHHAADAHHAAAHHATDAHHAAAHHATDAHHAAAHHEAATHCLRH
Experiment: Inhibition of beta-hematin formation assessed as drug: hematin molar ratio causing inhibition of hem polymerization after 24 hrs by HPIA method
Format: functional

| SMILES | Activity | Ratio IC50 |
| --- | --- | --- |
| COc1cc(NS(=O)(=O)c2ccc(N)cc2)nc(OC)n1 | inactive |  |
| C[C@@H]1CC[C@H]2[C@@H](C)C(=O)O[C@@H]3O[C@@]4(C)CC[C@@H]1[C@]32OO4 |  | 1.5 |
